How the values were obtained:
[1] = Evaluation of resin moldability (injection molding in polyethylene resin); format: physicochemical; conditions: repellent chemical 0.3 %, molding 250° C., residence 5 min
Text: The durable pest repellents prepared in Examples 1-1 to 1-10, and the comparative pest repellents prepared in Comparative Examples 1-1 to 1-14 and Comparative Reference Example 1-1 were mixed with a polyethylene resin (PE-NUC-8350, Nippon Unicar Co., Ltd.). For example, in the durable pest repellent of Example 1-1, since the amount of pest repellent chemical supported was 3 mass %, when the amount of repellent added in a resin composition shown in Table 2 was 5%, the amount of pest repellent chemical added was calculated as 0.15 mass %, and when the amount of repellent added in the resin composition was 10%, the amount of pest repellent chemical added was calculated as 0.3 mass %.
Resin compositions were produced by adjusting the amount of each repellent added to the resin composition so that the amount of pest repellent chemical added in the resin composition was 0.3 mass %, 0.15%, and 0.6%, they were injection-molded into flat plates, and evaluation of whether kneading into the resin was possible was carried out. Molding was carried out using a Model M-50A(II)-DM manufactured by Meiki Co., Ltd. at a molding temperature of 250° C., thus giving 10 cm square plates having a thickness of 2 mm. Furthermore, the residence time was 5 minutes, and checks as to whether or not there was foaming, a strange smell, or discoloration during molding were carried out. […]
The durable pest repellents prepared in Examples 2-1 to 2-12, the comparative pest repellents prepared in Comparative Examples 2-1 to 2-4, and Comparative Reference Example 2-1 were mixed with a polyethylene resin (PE-NUC-8350, Nippon Unicar Co., Ltd.). For example, in the durable pest repellent of Example 2-1, since the amount of pest repellent chemical supported was 5 mass %, when the amount of repellent added in a resin composition shown in Table 4 was 3%, the amount of pest repellent chemical added was calculated as 0.15 mass %, and when the amount of repellent added in the resin composition was […], the amount of pest repellent chemical added was calculated as 0.3 mass %. […]

house dust mite [2] = test: Evaluation of persistence of repellence (after heating), JIS L 1920; format: in vivo; conditions: polyethylene plate, repellent chemical 0.3 %; held at 81° C. for 48 hours
Protocol: (§1) Plates molded after adding the pest repellents prepared in Examples 1-1 to 1-10 and Comparative Examples 1-1 to 1-14 and Comparative Reference Example 1-1 to a polyethylene resin (PE-NUC-8350 manufactured by Nippon Unicar Co., Ltd.) so that the pest repellent component was 0.3 mass % were held in a dryer at 81° C. for 48 hours. They were cut into circles having a diameter of a little under 4 cm and subjected to a test for anti-mite properties. The test was carried by an intrusion-prevention method in accordance with JIS L 1920 ‘Testing methods for efficacy against house dust mite of textiles’. Plates molded after adding the durable pest repellents prepared in Examples 2-1 to 2-12, the comparative pest repellents prepared in Comparative Examples 2-1 to 2-4, and Comparative Reference Example 2-1 to a polyethylene resin (PE-NUC-8350 manufactured by Nippon Unicar Co., Ltd.) so that the pest repellent component was 0.3 mass % were held in a dryer at 81° C. for 48 hours. They were cut into circles having a diameter of a little under 4 cm and subjected to a test for anti-mite properties. The test was carried by an intrusion-prevention method in accordance with JIS L 1920 ‘Testing methods for efficacy against house dust mite of textiles’.

house dust mite [3] = test: Evaluation of repellency, anti-mite intrusion-prevention method JIS L 1920; format: in vivo; conditions: polyethylene plate, repellent chemical 0.3 %
Protocol: as §1, with “chemical” for “component”, “of the entire resin composition” for “were held in a dryer at 81° C. for 48 hours. They”, “2-4,” for “2-12, the”

[4] = Heat resistance by thermal analysis (TG/DTA in air); format: physicochemical; conditions: temperature at which amount of supported chemical component is reduced by 1/3, 30-600° C., 20° C./min
Protocol: Furthermore, it was confirmed by thermal analysis that the supported N,N-diethyl-m-toluamide acquired heat resistance. The thermal analysis was carried out using a Model TG/DTA220 manufactured by Seiko Instruments under an air atmosphere, the measurement temperature was 30° C. to 600° C., and the rate of temperature increase was 20° C./min. Since the measurement is carried out in air, the overall heat resistance in air including vaporization and oxidative decomposition can be evaluated, and N,N-diethyl-m-toluamide that only adheres to the surface of a porous substance having a large specific surface area is subjected to oxidative decomposition at relatively low temperature and the weight decreases, whereas it is expected that N,N-diethyl-m-toluamide that is packed between layers of the inorganic layered compound without gaps is resistant to vaporization and oxidative decomposition and the weight will be maintained up to a higher temperature. […]

Molding properties Bad smell [1]: Some
Molding properties Coloration [1]: None
Molding properties Foaming [1]: Some
Heat resistance [4]: 180 °C
SMILES: CCN(CC)C(=O)c1cccc(C)c1 [Comp. Ref. Ex. 1-1, N,N-diethyl-m-toluamide]
Post-heating percentage repellence (house dust mite [2]): 0%
Initial percentage repellence (house dust mite [3]): 21%

Reference: patent US8728506B2, “Durable pest repellent and pest repellent resin composition” (Toagosei Co., Ltd., priority 2009, dated 2014)
